Measurements reported in article PMC6269914, “In Vitro Evaluation of Novel Inhibitors against the NS2B-NS3 Protease of Dengue Fever Virus Type 4” (Molecules, 2013).

Experiments:
[1] = target: T1, DENV4 NS2B-NS3pro (Dengue virus type 4, UniProt Q2YHF0, DELINS1442-1474GGGGSGGGG); assay: In vitro inhibition assay of recombinant NS2B-NS3pro with fluorogenic AMC peptide substrate; assay type: biochemical, dengue virus type 4 (DENV4); settings: primary inhibition assay at a 100 μM concentration of inhibitors; Table S1
[2] = target: T1, DENV4 NS2B-NS3pro; assay: Inhibitor enzyme kinetics (Lineweaver-Burk and Dixon plots) against NS2B-NS3pro; assay type: biochemical, dengue virus type 4 (DENV4); settings: AMC peptide substrates
Method: Inhibitory kinetic experiments were performed at different constant inhibitor concentrations and different substrate concentrations. Lineweaver–Burk and Dixon plots were used to analyze the inhibition modes of these compounds. Ki values were calculated from the Dixon plots.
The type of inhibition was determined using Lineweaver–Burk plots, and Ki values were determined with a Dixon plot (1/v as a function of [I], inhibitor concentration) from different inhibitor concentrations.

T1 sequence (Q2YHF0 1475-1660, added parts left off, stated change not applied): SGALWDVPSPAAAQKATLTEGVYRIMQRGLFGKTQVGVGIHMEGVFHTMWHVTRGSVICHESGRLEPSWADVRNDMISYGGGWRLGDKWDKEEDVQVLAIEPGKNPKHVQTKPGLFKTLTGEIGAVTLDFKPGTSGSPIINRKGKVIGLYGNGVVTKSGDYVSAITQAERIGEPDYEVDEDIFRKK

## CCN(CC)CCn1c(NC(=O)c2ccc(Cn3nc([N+](=O)[O-])c(Cl)c3C)o2)nc2ccccc21 [Compound 2, 5-((4-chloro-5-methyl-3-nitro-1H-pyrazol-1-yl)methyl)-N-(1-(2-(diethylamino)ethyl)-1H-benzo[d]imidazol-2-yl)furan-2-carboxamide]
[1]
  Inhibition Activity: 95.23%
[2]
  Inhibition mode: competitive inhibitors

## CC(=O)N1N=C(c2cc(-c3ccccc3)nc3ccccc23)OC1c1ccc(C(=O)O)cc1 (stereo not drawn) [Compound 14, 4-(3-acetyl-5-(2-phenylquinolin-4-yl)-2,3-dihydro-1,3,4-oxadiazol-2-yl)benzoic acid]
[1]
  Inhibition Activity: 98.15%
[2]
  Inhibition mode: competitive inhibitors

## Cc1cccc(C)c1-n1c(SCc2cc(=O)n3cc(Cl)ccc3n2)nc2c(sc(=S)n2-c2c(C)cccc2C)c1=O [Compound 22, 5-[[(7-chloro-4-oxo-4H-pyrido[1,2-a]pyrimidin-2-yl)methyl)sulfanyl)-3,6-bis(2,6-dimethylphenyl)-2-thioxo-2,3-dihydro[1,3]thiazolo[4,5-d]pyrimidin-7(6H)-one]
[1]
  Inhibition Activity: 91.65%
[2]
  Inhibition mode: competitive inhibitors

## N-(1-benzyl-1H-benzo[d]imidazol-2-yl)-5-((3-nitro-1H-1,2,4-triazol-1-yl)methyl)furan-2-carboxamide [Compound 32]
[1]
  Inhibition Activity: 45.55%

## N-(3-(4-cyclohexylpiperazin-1-yl)propyl)-1-(5-(2-oxopyrrolidin-1-yl)-1,3,4-thiadiazol-2-yl)piperidine-3-carboxamide [Compound 23]
[1]
  Inhibition Activity: 17.71%

## N-(3-(4-ethylpiperazin-1-yl)propyl)-1-(5-(2-oxopyrrolidin-1-yl)-1,3,4-thiadiazol-2-yl)piperidine-3-carboxamide [Compound 30]
[1]
  Inhibition Activity: 1.3%

## N-(3-(piperidin-1-yl)propyl)-1-(6-(p-tolyl)imidazo[2,1-b][1,3,4]thiadiazol-2-yl)piperidine-3-carboxamide [Compound 8]
[1]
  Inhibition Activity: 33.48%

## N-(4-((2-(benzo[d][1,3]dioxol-5-yl)-1,3-dioxoisoindolin-5-yl)oxy)phenyl)-1-oxo-4-phenyl-1H-isochromene-3-carboxamide [Compound 20]
[1]
  Inhibition Activity: 28.87%

## N-cycloheptyl-2,5-dimethyl-4-(4-(pyridin-2-yl)piperazin-1-yl)thieno[2,3-d]pyrimidine-6-carboxamide [Compound 28]
[1]
  Inhibition Activity: 32.84%
